# Data taken from patent publication US20180194762A1 (Pharmacyclics LLC, priority 2017, published 2018).
# Read-outs that look alike come from different tables or passages of the source.
# Assays:
# Assay type in all cases: biochemical
# [1] = target: T1, Btk (Homo sapiens, UniProt Q06187); experiment: Btk in vitro inhibitory activity (one of Method A TR-FRET, Method B electrophoretic mobility shift, Method C radiometric filter binding)
# T1 construct: purified from insect cells as a full-length construct containing a N-terminal 6X-His tag; His6 (N); made in house; host or cells: insect cells (Method C)
# T1 sequence (Q06187 whole entry): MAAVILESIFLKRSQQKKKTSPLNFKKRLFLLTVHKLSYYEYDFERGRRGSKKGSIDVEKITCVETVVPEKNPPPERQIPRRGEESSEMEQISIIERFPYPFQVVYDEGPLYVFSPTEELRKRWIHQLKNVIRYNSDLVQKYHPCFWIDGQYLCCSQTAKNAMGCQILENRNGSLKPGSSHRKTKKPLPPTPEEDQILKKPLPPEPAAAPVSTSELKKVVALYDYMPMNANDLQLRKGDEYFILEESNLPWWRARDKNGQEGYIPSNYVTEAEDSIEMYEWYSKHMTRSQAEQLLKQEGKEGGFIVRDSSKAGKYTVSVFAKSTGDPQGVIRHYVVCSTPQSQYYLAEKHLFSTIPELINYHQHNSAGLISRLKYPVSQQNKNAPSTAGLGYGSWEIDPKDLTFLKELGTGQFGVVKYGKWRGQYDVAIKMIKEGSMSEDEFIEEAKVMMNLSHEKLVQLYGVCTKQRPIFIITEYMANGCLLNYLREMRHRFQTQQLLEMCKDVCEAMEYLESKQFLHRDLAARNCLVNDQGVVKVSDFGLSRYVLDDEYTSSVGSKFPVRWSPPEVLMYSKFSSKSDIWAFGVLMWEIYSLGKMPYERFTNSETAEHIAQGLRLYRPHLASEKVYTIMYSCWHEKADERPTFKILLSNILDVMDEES
# Method in brief: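 Three alternative formats were used. A radiometric filter-binding read used 8 nM full-length His-BTK with 0.2 mg/mL poly(Glu-Tyr) 4:1 (C); microfluidic separation of 1 μM FAM-peptide by 1 nM BTK gave IC50 from 12-point curves (B); TR-FRET at Km ATP, 0.5 nM Btk, gave Ki(app)-derived IC50 (A).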
# [2] = target: T2, TEC (Homo sapiens, UniProt P42680); experiment: Inhibition of a panel of kinases (in vitro HotSpot kinase assay, 33P-ATP, 1 μM ATP); details: for IC50: HotSpot kinase assay, 1 μM ATP; for TEC/Btk: ratio of TEC IC50 to Btk IC50 (selectivity)
# T2 sequence (P42680 1-631): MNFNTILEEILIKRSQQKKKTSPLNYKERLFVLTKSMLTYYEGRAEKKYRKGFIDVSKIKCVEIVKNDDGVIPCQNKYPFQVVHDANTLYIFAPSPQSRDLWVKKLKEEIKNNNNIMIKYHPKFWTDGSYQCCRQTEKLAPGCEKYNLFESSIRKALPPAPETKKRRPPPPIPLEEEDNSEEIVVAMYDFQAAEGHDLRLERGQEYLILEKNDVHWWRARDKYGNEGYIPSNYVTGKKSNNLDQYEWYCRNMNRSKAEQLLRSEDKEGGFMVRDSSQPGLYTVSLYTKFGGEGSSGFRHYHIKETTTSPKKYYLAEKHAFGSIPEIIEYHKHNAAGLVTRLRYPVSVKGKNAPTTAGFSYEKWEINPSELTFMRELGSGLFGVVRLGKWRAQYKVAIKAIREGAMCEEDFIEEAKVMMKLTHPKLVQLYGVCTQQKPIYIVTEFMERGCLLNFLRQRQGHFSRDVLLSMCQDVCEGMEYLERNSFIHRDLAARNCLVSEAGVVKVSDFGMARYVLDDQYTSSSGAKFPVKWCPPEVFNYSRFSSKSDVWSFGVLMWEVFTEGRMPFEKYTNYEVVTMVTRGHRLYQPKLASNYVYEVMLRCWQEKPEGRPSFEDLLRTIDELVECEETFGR
# Method in brief: (§1)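 At 1 μM ATP spiked with 33P-ATP, substrate phosphorylation by the purified enzymes gives the extent of inhibition.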
# [3] = target: T3, panel of kinases (Homo sapiens, UniProt P51813); experiment: Inhibition of a panel of kinases (in vitro HotSpot kinase assay, 33P-ATP, 1 μM ATP), other kinases; details: BMX wild-type, read-out: BMX-WT IC50
# T3 sequence (P51813 1-675): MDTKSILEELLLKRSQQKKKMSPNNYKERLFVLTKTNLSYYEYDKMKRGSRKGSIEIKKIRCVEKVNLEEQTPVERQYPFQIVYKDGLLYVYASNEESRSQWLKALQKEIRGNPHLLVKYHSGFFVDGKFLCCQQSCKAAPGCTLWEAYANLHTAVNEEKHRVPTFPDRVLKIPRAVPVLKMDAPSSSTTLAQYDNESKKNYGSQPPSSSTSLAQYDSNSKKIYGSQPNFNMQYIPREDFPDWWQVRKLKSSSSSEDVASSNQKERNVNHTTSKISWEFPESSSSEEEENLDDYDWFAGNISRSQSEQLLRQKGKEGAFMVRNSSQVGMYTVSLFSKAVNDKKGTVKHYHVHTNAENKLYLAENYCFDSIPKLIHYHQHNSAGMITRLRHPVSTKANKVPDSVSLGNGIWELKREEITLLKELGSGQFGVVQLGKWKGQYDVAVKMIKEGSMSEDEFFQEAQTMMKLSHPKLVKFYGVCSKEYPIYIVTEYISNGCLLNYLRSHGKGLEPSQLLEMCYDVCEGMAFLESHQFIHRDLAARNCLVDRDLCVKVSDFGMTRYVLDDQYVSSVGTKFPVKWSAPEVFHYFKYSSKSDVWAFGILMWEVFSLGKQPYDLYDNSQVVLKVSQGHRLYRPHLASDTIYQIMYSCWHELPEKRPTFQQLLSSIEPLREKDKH
# Method in brief: as §1
# [4] = wild-type Btk, read-out: Btk-WT IC50
# [5] = method is one of A, B or C, not stated which, read-out: IC50 values against Btk
SMILES,"IC50 [1, 4] [nM]",IC50 [2] [nM],TEC/Btk [2],IC50 [3] [nM],"IC50 [1, 5] [nM]"
"CC(C)(C)c1nc(C(=O)NCc2ccc(-c3ccnc4[nH]nc(N[C@@H]5CCNC5)c34)cc2)no1 [Example 174, 5-tert-butyl-N-{[4-(3-{[(3R)-pyrrolidin-3-yl]amino}-1H-pyrazolo[3,4-b]pyridin-4-yl)phenyl]methyl}-1,2,4-oxadiazole-3-carboxamide]",32.7,> 10000,>100,> 10000,
"CC(C)(C)c1ccc(C(=O)NCc2ccc(-c3ccnc4[nH]nc(N[C@H]5CCNC5)c34)cc2F)cc1 [Compound 37, 4-tert-butyl-N-{[2-fluoro-4-(3-{[(3S)-pyrrolidin-3-yl]amino}-1H-pyrazolo[3,4-b]pyridin-4-yl)phenyl]methyl}benzamide]",53.9,> 10000,>100,8820,
"C=CC(=O)N1CC[C@@H](Nc2n[nH]c3nccc(-c4ccc(CNC(=O)c5noc(CC)n5)c(F)c4)c23)C1 [Example 84, 5-ethyl-N-{[2-fluoro-4-(3-{[(3R)-1-(prop-2-enoyl)pyrrolidin-3-yl]amino}-1H-pyrazolo[3,4-b]pyridin-4-yl)phenyl]methyl}-1,2,4-oxadiazole-3-carboxamide]",7.83,361,46,87,< 10
"C=CC(=O)N1CC[C@@H](Nc2n[nH]c3nccc(-c4ccc([C@@H](C)NC(=O)c5noc(C(C)(C)C)n5)cc4)c23)C1 [Example 98, 5-tert-butyl-N-[(1R)-1-[4-(3-{[(3R)-1-(prop-2-enoyl)pyrrolidin-3-yl]amino}-1H-pyrazolo[3,4-b]pyridin-4-yl)phenyl]ethyl]-1,2,4-oxadiazole-3-carboxamide]",0.165,108,652,239,< 10
"CC(C)(C)c1ncc(C(=O)NCc2ccc(-c3ccnc4[nH]nc(N[C@H]5CC[C@H](O)CC5)c34)cc2F)o1 [Compound 39, 2-tert-butyl-N-{[2-fluoro-4-(3-{[(1r,4r)-4-hydroxycyclohexyl]amino}-1H-pyrazolo[3,4-b]pyridin-4-yl)phenyl]methyl}-1,3-oxazole-5-carboxamide]",63.6,4680,74,3820,
"CC(C)(C)c1noc(C(=O)NCc2ccc(-c3ccnc4[nH]nc(C5CC5)c34)cc2F)n1 [Example 255, 3-tert-butyl-N-{[4-(3-cyclopropyl-1H-pyrazolo[3,4-b]pyridin-4-yl)-2-fluorophenyl]methyl}-1,2,4-oxadiazole-5-carboxamide]",1.26,1630,1294,1360,
"CC#CC(=O)N1CC[C@@H](Nc2n[nH]c3nccc(-c4cccc(NC(=O)c5ccc(C(C)(C)C)cc5)c4C)c23)C1 [Compound 10, N-[3-(3-{[(3R)-1-(but-2-ynoyl)pyrrolidin-3-yl]amino}-1H-pyrazolo[3,4-b]pyridin-4-yl)-2-methylphenyl]-4-tert-butylbenzamide]",13.1,8350,637,> 10000,
"C=CC(=O)N1CC[C@@H](Nc2n[nH]c3nccc(-c4ccc(CNC(=O)c5nc(C(C)(C)C)no5)c(F)c4)c23)C1 [Example 83, 3-tert-butyl-N-{[2-fluoro-4-(3-{[(3R)-1-(prop-2-enoyl)pyrrolidin-3-yl]amino}-1H-pyrazolo[3,4-b]pyridin-4-yl)phenyl]methyl}-1,2,4-oxadiazole-5-carboxamide]",0.056,28,493,52,< 10
"CC(C)(C)c1ccc2c(c1)CCN(Cc1ccc(-c3ccnc4[nH]nc(N[C@@H]5CCNC5)c34)cc1F)C2=O [Compound 36, 6-tert-butyl-2-{[2-fluoro-4-(3-{[(3R)-pyrrolidin-3-yl]amino}-1H-pyrazolo[3,4-b]pyridin-4-yl)phenyl]methyl}-1,2,3,4-tetrahydroisoquinolin-1-one]",433,> 10000,>100,> 10000,
"CC#CC(=O)N1CC[C@@H](Nc2n[nH]c3nccc(-c4ccc(C5(NC(=O)c6noc(C(C)(C)C)n6)CC5)cc4)c23)C1 [Compound 28, (R)—N-(1-(4-(3-((1-(but-2-ynoyl)pyrrolidin-3-yl)amino)-1H-pyrazolo[3,4-b]pyridin-4-yl)phenyl)cyclopropyl)-5-(tert-butyl)-1,2,4-oxadiazole-3-carboxamide]",0.575,200,347,71,

# Continued, values first:
"IC50 [1, 4] [nM]",IC50 [2] [nM],TEC/Btk [2],IC50 [3] [nM],"IC50 [1, 5] [nM]",SMILES
17.3,1400,,1810,,"CC(=O)N[C@@H]1CCN(c2n[nH]c3nccc(-c4ccc(CNC(=O)c5cc(C(C)(C)C#N)on5)c(F)c4)c23)C1 [Example 403, N-[(4-{3-[(3R)-3-acetamidopyrrolidin-1-yl]-1H-pyrazolo[3,4-b]pyridin-4-yl}-2-fluorophenyl)methyl]-5-(2-cyanopropan-2-yl)-1,2-oxazole-3-carboxamide]"
0.626,1320,,1230,,"CC(C)(C)c1noc(C(=O)NCc2ccc(-c3ccnc4[nH]nc(N5CCC(N)C5)c34)cc2F)n1 (stereo not shown) [Example 330, N-({4-[3-(3-aminopyrrolidin-1-yl)-1H-pyrazolo[3,4-b]pyridin-4-yl]-2-fluorophenyl}methyl)-3-tert-butyl-1,2,4-oxadiazole-5-carboxamide]"
46.2,6160,,3040,,"CC(=O)NC1CCN(c2n[nH]c3nccc(-c4ccc([C@@H](C)NC(=O)c5cc(C(C)(C)O)on5)cc4)c23)CC1 [Example 365, N-[(1R)-1-{4-[3-(4-acetamidopiperidin-1-yl)-1H-pyrazolo[3,4-b]pyridin-4-yl]phenyl}ethyl]-5-(2-hydroxypropan-2-yl)-1,2-oxazole-3-carboxamide]"
0.434,1070,,1010,,"CN(C)C/C=C/C(=O)N[C@@H]1CCN(c2n[nH]c3nccc(-c4ccc(CNC(=O)c5cc(C(C)(C)C)on5)c(F)c4)c23)C1 [Example 309, 5-tert-butyl-N-[(4-{3-[(3R)-3-{[(2E)-4-(dimethylamino)but-2-enoyl]amino}pyrrolidin-1-yl]-1H-pyrazolo[3,4-b]pyridin-4-yl}-2-fluorophenyl)methyl]-1,2-oxazole-3-carboxamide]"
1.23,146,,128,,"C=CC(=O)N1CC[C@@H](Nc2n[nH]c3nccc(-c4ccc(CNC(=O)c5ccc6c(c5)OCCO6)c(F)c4)c23)C1 [Example 374, N-{[2-fluoro-4-(3-{[(3R)-1-(prop-2-enoyl)pyrrolidin-3-yl]amino}-1H-pyrazolo[3,4-b]pyridin-4-yl)phenyl]methyl}-2,3-dihydro-1,4-benzodioxine-6-carboxamide]"
0.488,235,,1190,,"C[C@@H](NC(=O)c1nc(C(C)(C)C)no1)c1ccc(-c2ccnc3[nH]nc(N4CCC(NS(C)(=O)=O)CC4)c23)cc1 [Example 396, 3-tert-butyl-N-{(1R)-1-[4-(3-{4-[(methanesulfonyl)amino]piperidin-1-yl}-1H-pyrazolo[3,4-b]pyridin-4-yl)phenyl]ethyl}-1,2,4-oxadiazole-5-carboxamide]"
